# Source: patent US20250120902A1, “POSTBIOTIC FERMENT COMPOSITION FOR ROOT, SCALP, AND HAIR CARE AND METHOD OF PREPARING AND USING THE” (THE ROOTIST INC., priority 2023, published 2025)
# Values joined by “and” are separate entries in the source; they are usually repeats but may differ in a detail not shown here. Identical values can stand only once.
# Tested on: 3D hair follicle organoids (HFDPC and HEKn cells)
# Assay: Hair follicle organoid growth test
# Format: cell-based, Human
# Conditions: 1 μM
# Description: Human Primary Dermal Papilla Cells (HFDPC) were collected from a person and provided by Kyungpook National University. Human Primary Epidermal Keratinocytes, neonatal foreskin (HEKn) cells were purchased from ATCC. […] The hair follicle organoid growth test aims to mass-produces hair follicle organoids by proliferating dermal papilla cells isolated from adult hair tissue in vitro, mixing them with keratinocytes, and then co-culturing them on a specially designed particle pattern substrate ([…], 150 spheroids/well). The experiment enables the assessment of the sample's impact on hair growth by monitoring changes in the diameter of keratinocyte pillars within the developed hair follicle organoid. In this test, to differentiate and validate the growth of HFDPC and HEKn cells, HFDPC cells were stained with Cell tracker CM-DilTM and HEKn cells were stained with Cell tracker Green CMFDATM. Stained HFDPC cells underwent filtration using a 15 μm strainer before being combined with DMEM medium to yield a density of 5×10^4 cells/well. Similarly, HEKn cells were adjusted to a density of 3×10^4 cells/well. […] 4) The test result measurements were initially analyzed using the Linear Mixed Model (LMM), which accounts for the random effects of each well. However, due to the lack of normality, the data were re-analyzed using the Generalized Linear Mixed Model (GLMM), which is suitable for non-normal data. […]
smiles,measurement,setting,value
"Nc1cc(N2CCCCC2)nc(N)[n+]1[O-] [Minoxidil, minoxidil]",Hair follicle organoid growth rate,"day 3, compared to the untreated group (100%)",114.67% and 114.67 ± 5.69%
same,hair follicle organoid diameter,"day 3, estimated mean ± standard deviation",25.77 ± 1.28 μm
